The results in this text go back to US9303033B2, “Pyrazolopyrimidines and related heterocycles as CK2 inhibitors” (SENHWA BIOSCIENCES, INC., priority 2009, dated 2016).

Each structure is given as a SMILES string. Like-named read-outs stand apart in the source and are kept apart here.

Test [1] concerns the target CK2 ααββ (Homo sapiens (Human), UniProt P68400). The test can be described thus: CK2 assay (cell-free, 33P-ATP, phosphocellulose filter plate). In kind it is biochemical.
Method: Modulatory activity of compounds described herein was assessed in vitro in cell-free CK2 assays by the following method.
Reactions were maintained for 40 min at 23° C. The reactions were quenched with 100 ul of 0.75% Phosphoric acid, then transferred to and filtered through a Phosphocellulose filter plate (Millipore, MSPH-N6B-50). After washing each well 4 times with 0.75% Phosphoric acid, scintillation fluid (20 uL) was added to each well and the residual radioactivity was measured using a Wallac luminescence counter.
The target in test [2] is recombinant human PIM2 (Homo sapiens (Human), UniProt Q9P1W9). Nature of the test: PIM-2 assay (33P-ATP filter binding). It is filed as biochemical. The conditions noted are these: for PIM2: % inh […]: at […] compound.
Method: Test compounds dissolved and diluted in DMSO (2 μl) were added to a reaction mixture comprising 10 μl of 5× Reaction Buffer (40 mM MOPS pH 7.0, 5 mM EDTA), 10 μl of recombinant human PIM2 solution (4 ng PIM-2 dissolved in dilution buffer (20 mM MOPS pH 7.0; EDTA 1 mM; 5% Glycerol; 0.01% Brij 35; 0.1%; 0.1% 2-mercaptoethanol; 1 mg/ml BSA)) and 8 ul of water.
Test [3] concerns MDAMB453. The test can be described thus: Cell proliferation assay with Alamar Blue (AB), MDAMB453. In kind it is cell-based. Here is the method: (§1) A representative cell-proliferation assay protocol using Alamar Blue dye (stored at 4° C., use 20 ul per well) is described hereafter.
(§2) a. Split and trypsinize cells.
(§3) b. Count cells using hemocytometer.
(§4) c. Plate 4,000-5,000 cells per well in 100 μl of medium and seed into a 96-well plate according to the following plate layout. Add cell culture medium only to wells B10 to B12.
(§5) d. Add 100 μl of 2× drug dilution to each well in a concentration shown in the plate layout above. […] Total volume is 200 μl/well.
(§6) e. Incubate four (4) days at 37° C., 5% CO2 in a humidified incubator.
(§7) f. Add […] Alamar Blue reagent to each well.
(§8) g. Incubate for four (4) hours at 37° C., 5% CO2 in a humidified incubator.
(§9) h. Record fluorescence at an excitation wavelength of 544 nm and emission wavelength of 590 nm using a microplate reader.
(§10) In the assays, cells are cultured with a test compound for approximately four days, the dye is then added to the cells and fluorescence of […] dye is detected after approximately four hours. Different types of cells can be utilized in the assays (e.g., HCT-116 human colorectal carcinoma cells, PC-3 human prostatic cancer cells, MDA-MB231 human breast cancer cells, K-562 human chronic myelogenous leukemia (CML) cells, MiaPaca human pancreatic carcinoma cells, MV-4 human acute myeloid leukemia cells, and BxPC3 human pancreatic adenocarcinoma cells).

Test [4] concerns BxPC3 human pancreatic adenocarcinoma cells. Nature of the test: Cell proliferation assay with Alamar Blue (AB), BxPC3. It is filed as cell-based. The procedure:
as §1, §2, §3, §4, §5, §6, §7, §8, §9, §10

The mark [5] stands for this setting: MDAMB453 cells, read-out: AB: MDAMB453 IC50.
[6] abbreviates: PIM2: IC50 (5 μM ATP), 5 μM ATP.
The mark [7] stands for this setting: Homo sapiens, MDA-MB-453, MDAMB453 cells, read-out: AB: MDAMB453.
The mark [8] stands for this setting: Homo sapiens, BXPC-3, read-out: AB: BxPC3.

Chain of CK2 ααββ (P68400 whole entry): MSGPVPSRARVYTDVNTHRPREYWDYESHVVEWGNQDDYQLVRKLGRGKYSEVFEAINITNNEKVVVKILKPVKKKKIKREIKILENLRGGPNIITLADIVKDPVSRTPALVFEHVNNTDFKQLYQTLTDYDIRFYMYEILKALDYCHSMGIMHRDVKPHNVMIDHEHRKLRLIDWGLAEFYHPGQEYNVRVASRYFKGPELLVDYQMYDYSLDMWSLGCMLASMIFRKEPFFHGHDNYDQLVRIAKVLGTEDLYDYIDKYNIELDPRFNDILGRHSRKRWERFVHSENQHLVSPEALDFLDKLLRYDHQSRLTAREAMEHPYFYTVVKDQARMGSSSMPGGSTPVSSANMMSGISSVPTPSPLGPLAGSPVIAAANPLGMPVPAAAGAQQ
Chain of CK2 ααββ (P67870 whole entry partner): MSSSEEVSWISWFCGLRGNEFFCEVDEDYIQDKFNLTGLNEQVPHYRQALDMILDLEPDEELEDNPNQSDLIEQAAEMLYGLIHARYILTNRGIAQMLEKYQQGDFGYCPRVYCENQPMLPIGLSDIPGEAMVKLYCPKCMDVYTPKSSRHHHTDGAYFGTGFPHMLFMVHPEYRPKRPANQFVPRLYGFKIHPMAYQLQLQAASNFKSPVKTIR
Chain of recombinant human PIM2 (Q9P1W9 whole entry): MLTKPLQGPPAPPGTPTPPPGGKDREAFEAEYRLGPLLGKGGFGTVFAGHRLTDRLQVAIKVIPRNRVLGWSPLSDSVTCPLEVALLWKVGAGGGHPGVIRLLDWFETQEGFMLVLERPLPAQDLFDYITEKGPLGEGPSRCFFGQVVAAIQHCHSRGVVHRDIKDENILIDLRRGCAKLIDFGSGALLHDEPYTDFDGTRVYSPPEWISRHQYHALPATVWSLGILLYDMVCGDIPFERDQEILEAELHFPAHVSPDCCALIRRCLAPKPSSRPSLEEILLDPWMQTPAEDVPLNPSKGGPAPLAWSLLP

Turning to `CN1C(=O)NC(=Cc2cnn3c(NC4CC4)cc(Nc4ccc(C#N)c(Cl)c4)nc23)C1=O` [Example E42], the IC50 in test [1] is under 100 nM; in test [3] (setting [5]), 1290 nM; in test [4] (read-out: AB: BxPC3 IC50), 1970 nM. Further, the “PIM2: % inh […]” value in test [2] was −72.498%.
Take `O=C1NC(=O)/C(=C/c2cnn3c(NCc4cccnc4)cc(Nc4cccc(Cl)c4)nc23)N1` [Example I6]: the IC50 was under 1000 nM in test [1], 704 nM in test [2] (setting [6]), 708 nM in test [3] (setting [7]) and 2560 nM in test [4] (setting [8]).
On to `O=C1NC(=O)/C(=C/c2cnn3c(NC4CC4)cc(SCc4ccccc4)nc23)N1`, for which the IC50 in test [1] is under 10 nM; in test [2] (5 um ATP, read-out: PIM2: IC50 (5 um ATP)), over 2500 nM; in test [3] (setting [7]) it was over 30000 nM; in test [4] (setting [8]), 11000 nM.
With `O=C1NC(=O)/C(=C/c2cnn3c(NC4CC4)cc(-c4cccc(CN5CCOCC5)c4)nc23)N1` [Example M4], the IC50 in test [1] was under 10 nM; in test [2] (setting [6]), 1250 nM; in test [3] (setting [7]), over 30000 nM; in test [4] (setting [8]) it was 14400 nM.
Turning to `CC1CN(Cc2cc(-c3cc(NC4CC4)n4ncc(C=C5NC(=O)NC5=O)c4n3)cs2)CC(C)O1` (stereo not shown) [Compound A14], the IC50 in test [1] is under 10 nM; in test [2] (read-out: PIM2: IC50 (5 μM ATP), 5 μM ATP), 1570 nM; in test [3] (MDAMB453 cells, read-out: AB: MDAMB453), 1610 nM; in test [4] (read-out: AB: BxPC3), 1760 nM.
As to `CC(C)N1CCN(C(=O)c2cc(-c3cc(NC4CC4)n4ncc(/C=C5\NC(=O)NC5=O)c4n3)ccc2F)CC1` [Example D5], the IC50 was under 100 nM in test [1], over 2500 nM in test [2] (setting [6]), 2440 nM in test [3] (setting [7]) and 1210 nM in test [4] (setting [8]).
As to `O=C1NC(=O)C(=Cc2cnn3c(NC4CC4)cc(Nc4ccc(OCCN5CCOCC5)c(Cl)c4)nc23)N1` [Example U42], the IC50 in test [1] was under 10 nM; in test [3] (setting [5]), 1090 nM; in test [4] (read-out: AB: BxPC3 IC50), 2460 nM. Also, the “PIM2: % inh […]” value in test [2] is given as 48.912%.
For `NCc1cccc(-c2cc(NC3CC3)n3ncc(/C=C4\NC(=O)NC4=O)c3n2)c1` [Example R4], the IC50 in test [1] is under 10 nM; in test [2] (setting [6]) it was 48.7 nM; in test [3] (setting [7]), 14900 nM; in test [4] (setting [8]), 10600 nM.
As for `Nc1cc(NC2CC2)n2ncc(/C=C3\NC(=O)NC3=O)c2n1` [Example K2], the IC50 in test [1] is under 10 nM; in test [2] (setting [6]), over 2500 nM; in test [3] (setting [7]) it was 11800 nM; in test [4] (setting [8]), 9930 nM.
In the same order, the values of `O=C1NC(=O)/C(=C/c2cnn3c(NC4CC4)cc(-c4cccc(F)c4)nc23)N1` [Example J4] are under 10 nM, 867 nM, 4750 nM and over 30000 nM.
On to `Cc1ccc(Nc2cc(NCC3CC3)n3ncc(/C=C4\NC(=O)NC4=O)c3n2)nc1` [Example W1], for which the IC50 is under 100 nM in test [1], over 2500 nM in test [2] (setting [6]), 7420 nM in test [3] (setting [7]) and 9210 nM in test [4] (setting [8]).
Taken in the same sequence, the figures for `O=C1NC(=O)/C(=C/c2cnn3c(NC4CC4)cc(Nc4ccc(F)cc4Cl)nc23)N1` [Example L1] were under 10 nM, over 2500 nM, 500 nM and 1350 nM.
In the case of `CC(C)(C)C(=O)N1CCC(Nc2cc(Nc3cccc(Cl)c3)nc3c(/C=C4\NC(=O)NC4=O)cnn23)CC1` [Example M5], the IC50 in test [1] is under 100 nM; in test [2] (setting [6]) it was over 2500 nM; in test [3] (setting [7]), 874 nM; in test [4] (setting [8]) it was 10000 nM.
Regarding `CCCCS(=O)(=O)Nc1cccc(-c2cc(NC3CC3)n3ncc(/C=C4\NC(=O)NC4=O)c3n2)c1` [Example Y4], the IC50 in test [1] is under 10 nM; in test [2] (setting [6]) it was over 2500 nM; in test [3] (setting [7]), 1980 nM; in test [4] (setting [8]) it was 2250 nM.
Taken in the same sequence, the figures for `O=C1NC(=O)/C(=C/c2cnn3c(NC4CC4)cc(-c4ccc(O)cc4)nc23)N1` [Example L4] were under 10 nM, 1470 nM, 1790 nM and 725 nM.
Consider `COc1cccc(-c2cc(NC3CC3)n3ncc(/C=C4\NC(=O)NC4=O)c3n2)c1` [Example A5], for which the results for the IC50 in test [1], in test [3] (setting [7]) and in test [4] (setting [8]) were under 10 nM, 948 nM and 1740 nM, respectively.
In the case of `O=C1NC(=O)/C(=C/c2cnn3c(NC4CC4)cc(-c4ccncc4)nc23)N1` [Example Q4], the IC50 was under 10 nM in test [1], 256 nM in test [2] (setting [6]), 1070 nM in test [3] (setting [7]) and 745 nM in test [4] (setting [8]).
As to `N#Cc1cccc(-c2cc(NC3CC3)n3ncc(/C=C4\NC(=O)NC4=O)c3n2)c1` [Example D4], the IC50 is under 10 nM in test [1], over 2500 nM in test [2] (setting [6]), 1050 nM in test [3] (setting [7]) and 23600 nM in test [4] (setting [8]).
As for `CCOCCNc1cc(Nc2cccc(Cl)c2)nc2c(/C=C3\NC(=O)NC3=O)cnn12` [Example C6], the IC50 was found to be 1140 nM in test [3] (setting [7]) and 3800 nM in test [4] (setting [8]).
For the molecule `O=C1NC(=O)/C(=C/c2cnn3c(NC4CCN(CCO)CC4)cc(Nc4cccc(Cl)c4)nc23)N1` [Example P5], the IC50 in test [1] was under 100 nM; in test [2] (setting [6]), over 2500 nM; in test [3] (setting [7]), 825 nM; in test [4] (setting [8]), 16500 nM.
`O=C1NC(=O)/C(=C/c2cnn3c(NC4CCNC4)cc(Nc4cccc(Cl)c4)nc23)N1` (stereo not shown) [Example P6]: the IC50 came to 569 nM in test [3] (setting [7]) and 1620 nM in test [4] (setting [8]).
With `O=C1NC(=O)/C(=C/c2cnn3c(SCc4ccccc4)cc(-c4cccc(Cl)c4)nc23)N1` [Example Y5], the IC50 in test [1] is under 1000 nM; in test [2] (setting [6]), 291 nM.
As to `O=C1NC(=O)/C(=C/c2cnn3c(NC4CC4)cc(Nc4ccc(F)c(Cl)c4)nc23)N1` [Example S1], the IC50 was under 10 nM in test [1] and 2040 nM in test [2] (setting [6]).
As to `CC(C)Nc1cc(Nc2cccc(Cl)c2)nc2c(/C=C3\NC(=O)NC3=O)cnn12` [Example F6], the IC50 in test [1] was under 100 nM; in test [2] (setting [6]) it was over 2500 nM.
Consider `O=C1NC(=O)/C(=C/c2cnn3c(NC4CC4)cc(Nc4ccc(-n5cccn5)cc4)nc23)N1` [Example R1], for which the IC50 was under 10 nM in test [1] and over 2500 nM in test [2] (setting [6]).
Regarding `O=C1NC(=O)/C(=C/c2cnn3c(NCCN4CCOCC4)cc(Nc4cccc(Cl)c4)nc23)N1` [Example L6], the IC50 is under 2000 nM in test [1] and 2190 nM in test [2] (setting [6]).
Consider `CS(=O)(=O)N[C@H]1CC[C@H](Nc2cc(NC3CC3)n3ncc(/C=C4\NC(=O)NC4=O)c3n2)CC1` [Example E3], for which the IC50 in test [1] was under 10 nM; in test [2] (setting [6]), over 2500 nM.
Turning to `O=C1NC(=O)/C(=C/c2cnn3c([S+]([O-])Cc4ccccc4)cc(Nc4cccc(Cl)c4)nc23)N1` (stereo not shown) [Example Z5], the IC50 was under 1000 nM in test [1] and 297 nM in test [2] (setting [6]).
In the same order, the values of `O=C1NC(=O)/C(=C/c2cnn3c(NC4CCC4)cc(Nc4cccc(Cl)c4)nc23)N1` [Example G6] are under 1000 nM and over 2500 nM.
In the case of `O=C1NC(=O)/C(=C/c2cnn3c(NC4CC4)cc(NC4CCNCC4)nc23)N1` [Example W2], the figures for the IC50 in test [1] and in test [2] (setting [6]) were under 10 nM and 877 nM, respectively.
For the molecule `CC(CNc1cc(Nc2ccc(C#N)cc2Cl)nc2c(C=C3NC(=O)NC3=O)cnn12)N1CCOCC1` (racemic) [Example 522], the IC50 in test [1] was under 10 nM; in test [3] (setting [5]), 1520 nM; in test [4] (read-out: AB: BxPC3 IC50) it was 10400 nM.
As for `Cc1nn2c(NC3CC3)cc(Nc3ccc(-n4cccn4)cc3)nc2c1C=C1NC(=O)NC1=O` [Example 275, 5-((5-(4-(1H-pyrazol-1-yl)phenylamino)-7-(cyclopropylamino)-2-methylpyrazolo[1,5-a]pyrimidin-3-yl)methylene)imidazolidine-2,4-dione], in test [1], the IC50 was over 1000 nM. In test [2] (read-out: PIM2: % inh […], at 2.5 μM compound), the inhibition at […] worked out at 43.4%.
In the case of `O=C1NC(=O)/C(=C/c2cnn3c(NC4CC4)cc(NC(=O)C4CC4)nc23)N1` [Example L2], the IC50 was under 10 nM in test [1], 4170 nM in test [3] (setting [7]) and 11000 nM in test [4] (setting [8]).
As for `O=C1NC(=O)/C(=C/c2cnn3c(NC4CC4)cc(-c4ccc(F)c(C(=O)NCCN5CCCC5)c4)nc23)N1` [Example E5], the results for the IC50 in test [1] and in test [2] (setting [6]) were under 100 nM and over 2500 nM, respectively.
`O=C1NC(=O)/C(=C/c2cnn3c(NCc4ccccn4)cc(Nc4cccc(Cl)c4)nc23)N1` [Example H6]: the IC50 was under 1000 nM in test [1] and 421 nM in test [2] (setting [6]).
For `O=C1NC(=O)/C(=C/c2cnn3c(SCc4ccccc4)cc(Nc4cccc(Cl)c4)nc23)N1` [Example X5], the IC50 in test [1] was under 1000 nM; in test [2] (setting [6]) it was 2240 nM.
Turning to `O=C1NC(=O)/C(=C/c2cnn3c(NC4CCCC4)cc(Nc4cccc(Cl)c4)nc23)N1` [Example B6], the IC50 is 10500 nM in test [3] (setting [7]) and over 30000 nM in test [4] (setting [8]).
For `CC(O)CN1CCC(Nc2cc(Nc3cccc(Cl)c3)nc3c(/C=C4\NC(=O)NC4=O)cnn23)CC1` (stereo not shown) [Example U5], the IC50 was under 1000 nM in test [1] and over 2500 nM in test [2] (setting [6]).
